The test system of assay [1] is MCF7, HEK293 and T47D cells. The assay can be described thus: Viability of cells grown in glucose (glycolytic) vs galactose (Hi-OXPHOS). Type of assay: cell-based, human. The settings on record: screen. The method, then:
FIGS. 40A-40D: Cancer cell metabolism alters sensitivity to elesclomol.
FIGS. 41A-41B: Cancer cell metabolism alters sensitivity to elesclomol.
FIGS. 51A-51D: Elesclomol preferentially targets cells in the Hi-OXPHOS state. […] The relative cell growth (color coded) was analyzed 72 hours post compound addition. Plotted are the mean SD of at least three replicas and the calculated EC50s (FIGS. 51B-51C). […] Reactive groups are indicated with a colored circle.
FIGS. 57A-57C: Elesclomol preferentially targets cells in the Hi-OXPHOS state. […] Analogs named compound 1-6. […] Plotted are the mean SD of at least three replicas and the calculated EC50s (FIG. 57A and FIG. 57C).

For assay [2], the system named is T47D cells. Briefly: The glucose/galactose drug screen. The settings on record: 10 mM Glucose or Galactose, Selleck anti cancer and natural product libraries. Type of assay: cell-based, human. The procedure:
We conducted a second set of drug screens to identify unique sensitivities conferred by the Hi-OXPHOS state using parental T47D breast cancer cells (without 19S subunit suppression). For this screen, we used the NPC and CDL libraries as they contained the greatest number of hits in the Lo19S screen. We tested over 800 compounds at multiple concentrations and measured their effects on relative cell growth/viability when cells were grown under aerobic glycolysis conditions (glucose-supplemented medium) or forced mitochondrial respiration conditions (galactose-supplemented medium).
The glucose/galactose drug screen—T47D cells growing in regular media were collected counted and after centrifugation cells were re-suspended in RPM1 media without glucose containing 10% dialyzed serum with the addition of either 10 mM glucose or 10 mM galactose, Cells were then plated at 1000 cells/well in 384-well opaque, white assay plates (Coming, N.Y.), 50 uL per well, and incubated overnight at 37°C./5% CO2. Application of the drug libraries and cell viability was executed as described above for the Lo19S drug screen.

Another assay addresses T1, FDX1 (Homo sapiens, UniProt P10109).
T1 construct: made in house
T1 sequence (P10109 62-184): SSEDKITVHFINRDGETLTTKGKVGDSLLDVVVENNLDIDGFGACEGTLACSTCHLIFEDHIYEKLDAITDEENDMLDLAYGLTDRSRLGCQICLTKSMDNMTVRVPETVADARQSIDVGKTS
The assay can be described thus: In vitro Fe-S cluster assembly with reduced FDX1 (absorbance at 456 nm). Type of assay: biochemical. As to conditions: x5 concentration relative to enzyme. The text has this:
FIGS. 47A-47C: Inhibition of Fe—S formation by elesclomol and variants (in-vitro). […] Note: “x(number) concentration” means that the indicated compound was present at 5 times the concentration of the enzyme.
(FIG. 53A) provides a schematic describing mitochondrial Fe—S cluster biosynthesis. The mitochondrial ISC (iron-sulfur cluster) core complex contains the scaffold protein ISCU and cysteine desulfurase (ACP-ISD11-NFS1)2. The latter catalyzes the conversion of cysteine to alanine and generates S° for iron sulfur cluster assembly. S° is reduced by FDX1. A [2Fe-2S] cluster is subsequently formed on ISCU. […] In vitro Fe—S cluster assembly was carried out with reduced. FDX1 as the reducing agent in the presence or absence of either 5× (green) or 10× (yellow) elesclomol (both relative to FDX1). Fe—S cluster formation was monitored by following the increase of absorbance at 456 nm. […] The red triangle denotes an NMR peak that became severely broadened. […] The [2Fe-2S] cluster in FDX1 is indicated by spheres.
The in vitro Fe—S cluster assembly was carried out with reduced FDX1 as the reducing agent and detected by following the increase of absorbance at 456 tun following the addition of either of 5× (green) or 10× (yellow, both relative to FDX1) compound-1. […] Fe—S formation was monitored by following the increase of absorbance at 456 nm. […] Cysteine desulfurase activity assay carried out with the indicated concentrations of elesclomol.

Assay [3] has as its system T47D cells. Briefly: Cell viability, T47D cells with doxycycline-inducible PSMD2 shRNA (KD) vs control. Type of assay: cell-based, human. The procedure: FIGS. 37A-37E: Subunit suppression results in highly specific drug sensitivity alteration. Schematic representation of the drug screen setup. (FIG. 37A) 147D cells harboring a doxycycline-inducible PSMD2 shRNA were grown in the presence or absence of doxycycline for 48 hr. Cells were then collected, washed, and plated in the absence of doxycycline for 24 hr prior to exposure different compounds. Relative cell numbers were measured 3 days later. […] (FIGS. 37C-37E) The relative viability of the PSMD2 knockdown (KD) versus the control was calculated for replica experiments and the log2 of the ratio is plotted for 349 compounds from the Selleck anti-cancer L3000 drug library that were tested in 4 concentrations (FIG. 37C), the Selleck natural product library (NPC) comprising 502 compounds in 5 doses (FIG. 37D), and the NIH bioactive compound library that includes 731 compounds in 4 doses (FIG. 37E). Specific compounds are annotated.
The effect of transient PSMD2 reduction on growth of T47D cells in the presence of different proteasome inhibitors (bortezomib, MLN9708, carfilzomib, oprozornib) was tested. T47D cells harboring a doxycycline inducible control shRNA (GFP) or a doxycycline-inducible PSMD2 shRNA (TurhoRFP) were incubated with doxycycline for 3 days. Cells were then split and grown in the absence of Dox and proteasome inhibitors were then added at various concentrations. Cells were maintained in culture and then counted.
For the generation of the T47D Tet-inducible PSMD2 knockdown cell line- the TRIPZ vector with an inducible shRNA targeting PSMD2 was purchased from Dhannacon (clone V3THS_403760). It was introduced to the T47D cells according to manufactures protocol and cells were selected with puromycin 1 μg/ml for one week. The cells were exposed to doxycycline for 24 hours and cells were FACS sorted for the top 10% of most RFP expressing cells (highest expression of shRNA). The cells were further cultured in the absence of doxycycline and PSMD2 knockdown was induced as specified in the relevant Examples. The TRIPZ control GFP vector was created by removing the turboRFP from the TRIPZ control vector by digestion with Agel and ClaI and replacing it with GFP amplified with primers flanking with Agel and Clal restriction sites.
Cell Viability Assay—Relative cell growth and survival were measured in 96-well microplate format in the shRNA experiments and in 384 well format in the drug toxicity assays, by using the fluorescent detection of resazurin dye reduction as an endpoint (544 nm excitation and 590 run emission). 2,500 cells in 96 wells format or 1,000 cells in 384 well format were plated 24 hours before compound exposure (for 72 hours or indicated time). Each analysis was performed at least with three replicas.

For assay [4], the system named is T47D cells harboring a doxycycline inducible PSMD2 KD shRNA construct. Briefly: Viability of PSMD2 knockdown versus control T47D cells, dose response and combinations (CellTiter-Glo). Type of assay: cell-based, human. As to conditions: T47D, transient PSMD2 suppression versus control. The procedure: Cell viability was measured by CellTiter-Glot Luminescent Cell Viability Assay 72 hours after addition of the compounds to cells.
Cell viability was measured by CellTiter-Glo® Luminescent Cell Viability Assay 72 hours after addition of the compounds were added to cells.
Cell viability was measured by CellTiter-Glolk Luminescent Cell Viability Assay 72 hours after addition of the compounds to cells.
To directly test whether altered cellular metabolism can modulate the sensitivity of cancer cells to proteasome inhibitors, we engineered the breast cancer cell line T47D into Lo19S and increased OXPHOS states. Initially, we reconstituted the Lo19S state by transient suppression of the PSMD2 subunit of the 19S complex using an inducible shRNA.
To induce a high OXPHOS (Hi-OXPHOS) state, we changed the carbon source in the cell culture media from glucose to galactose, which is poorly fermentable. This method has been previously shown to drive glutamine utilization by mitochondria and to thus increase mitochondrial respiration (Gohil et al., 2010). […] We reasoned that the Hi-OXPHOS signature we identified in Lo19S patient tumors may cooperate with the Lo19S state to further promote the ability of the cells to withstand proteotoxic stress.
Cell viability—where indicated relative cell number following different drug treatment was conducted by plating cells at 1000 cells/well in 384 well plates. Indicated concentrations of compounds were added 24 hour after plating at least in triplicate for each condition. Viability was measured 72 hours after drug addition using cell titer-glo (Promega) according to manufactures protocol. Same protocol was applied for the experiments conducted for the Lo19S T47D, MCF7 and T47D in the context of altered carbon source only the cells were plated at 1000 cells/well in RPMI media (without glucose and with dialyzed serum) containing either 10 mM Glucose or lOmM galactose.
In general terms: Cellular ATP, detected with luciferase, serves as a proxy for viable cell number.

SMILES strings stand for the structures. Entries after “also recorded” stand apart in the source; their conditions may differ.

As for `O=C(/C=C/c1cccnc1)NCCCCC1CCN(C(=O)c2ccccc2)CC1` [APO866], the “targeting of glycolytic cancer cells” value in assay [1] was “preferentially targets glycolytic cancer cells”. Besides, the “relative viability change of cells grown in glucose versus galactose” value with T47D cells [2] is given as “predominantly more sensitive; also recorded: strongest hits in this screen”.

As for `CN(NC(=O)CC(=O)NN(C)C(=S)c1ccccc1)C(=S)c1ccccc1` [SAT-4783], the “in vitro formation of Fe-S clusters mediated by FDX1” value at FDX1 is on record as “inhibition”.

With `CC(C)C[C@H](NC(=O)[C@H](CCc1ccccc1)NC(=O)CN1CCOCC1)C(=O)N[C@@H](Cc1ccccc1)C(=O)N[C@@H](CC(C)C)C(=O)[C@@]1(C)CO1` [carfilzomib], in the assay with T47D cells [3] (T47D, transient PSMD2 reduction), the “resistance of cells harboring PSMD2 shRNA vs parental line (EC50)” value is recorded as “EC50 values increased considerably”.

On to `CC(C)C[C@H](NC(=O)CNC(=O)c1cc(Cl)ccc1Cl)B(O)O` [ixazomib], for which, in assay [4], the “increase of proliferation inhibition EC50 on inducing the Lo19S state” value is around 4 fold. Further, in the assay with T47D cells [3] (T47D cells, PSMD2 KD vs control), the “fold increase in EC50 induced by transient PSMD2 knockdown (KD)” value was 50-100 fold.

Values taken from patent publication US20180353445A1, “METHODS AND COMPOSITIONS RELATING TO PROTEASOME INHIBITOR RESISTANCE” (Whitehead Institute for Biomedical Research, priority 2017, published 2018).
